Experimental data as given in ChEMBL document CHEMBL3886663, “COMPOUNDS AND USES” (2016).

What follows are compounds tested against T1, Leukotriene C4 synthase (Homo sapiens, UniProt Q16873) (assay: Recombinant human LTC4 synthase is expressed in […] and the purified enzyme is dissolved in 25 mM tris-buffer pH 7.8 supplemented with 0.1 mM glutathione (GSH) and stored at −80 °C. […] The buffer is used as background. Runs are performed in duplicates. […] The reaction is stopped after 1 min by addition of double the reaction volume of a stop solution (MeOH:H2O:acetic acid 70:30:1).).
T1 sequence (Q16873 whole entry): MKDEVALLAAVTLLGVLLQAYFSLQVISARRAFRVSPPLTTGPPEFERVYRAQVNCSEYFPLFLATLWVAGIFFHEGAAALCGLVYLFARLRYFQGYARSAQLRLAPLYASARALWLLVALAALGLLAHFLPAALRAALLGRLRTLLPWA

Structure (SMILES) | IC50
COc1cc(N(Cc2cccc(C)c2)CC2CC2)cnc1C(=O)C1CC1C(=O)O (stereo not given) | 171 nM
COc1cc(N(Cc2cccc3ccccc23)CC2CC2)cnc1C(=O)C1CC1C(=O)O (stereo not given) | 66 nM
COc1cc(N(CC2CC2)c2cccc3c(C)ccnc23)cnc1C(=O)C1CC1C(=O)O (stereo not given) | 445 nM
COc1cc(N(Cc2ccc(-c3ccccc3)cc2)CC2CC2)cnc1C(=O)C1CC1C(=O)O (stereo not given) | 2180 nM
COc1cc(N(Cc2ccc(C)cc2)CC2CC2)cnc1C(=O)C1CC1C(=O)O (stereo not given) | 22 nM
COc1cc(N(CC2CC2)c2ccc(C)c3ccccc23)ncc1C(=O)C1CC1C(=O)O (stereo not given) | 56 nM

More lines, now with the values ahead:

IC50 | Structure (SMILES)
800 nM | COc1cc(N(Cc2c(Cl)cccc2Cl)CC2CC2)cnc1C(=O)C1CC1C(=O)O (stereo not given)
53 nM | COc1cc(N(Cc2ccc(C(F)(F)F)cc2F)CC2CC2)cnc1C(=O)C1CC1C(=O)O (stereo not given)
588 nM | COc1cc(N(Cc2cc(Cl)cc3c2OCO3)CC2CC2)cnc1C(=O)C1CC1C(=O)O (stereo not given)
478 nM | COc1cc(N(Cc2cc(F)cc3c2OCOC3)CC2CC2)cnc1C(=O)C1CC1C(=O)O (stereo not given)
